Experimental findings from US7932281B2, “Amine-based compound and use thereof” (Kureha Corporation, priority 2004, dated 2011) are described below.

Data set [1] has as its system HIV-1IIIB infected MT-4 cells. The data set is described as follows: Anti-HIV activity, HIV-1IIIB infected MT-4 cells, MTT method (Test Example 1). In kind it is cell-based. The note with it: Human immunodeficiency virus 1, MT4, 120 h, concentration required for inhibition of cell disorder due to HIV infection by 50%, MOI 0.01, 5 days. Here is the method:
Immediately after infection, HIV-1IIIB infected MT-4 cells (3.0×10^4/well, MOI (Multiplicity of infection): 0.01) were added to a 96-well microtiter plate together with the test compounds having different concentrations. The cells were cultured in a carbon dioxide incubator at 37° C. for 5 days, and the number of living cells was measured in accordance with the MTT (tetrazolium) method ([…], et al., J. of Virol. Method, 20, 309-321 […]). The antiviral activity is represented by the concentration required for inhibition of cell disorder due to HIV infection by 50% (EC50: 50% Effective Concentration) (μM), and the results are shown in Table 2.
In general terms: Tetrazolium assays rely on reduction of a dye to a coloured formazan, in cell work by metabolically active cells.

The next data set has as its target T1, CXCR4 (Homo sapiens, UniProt P61073).
T1 construct: endogenous in cells; host or cells: MT-4 cells
The data set is described as follows: Inhibition of 125I-SDF-1α binding to receptors CXCR4 on MT-4 cells (Test Example 2). The settings on record: binding-inhibition % at 0.01 μM, 2 hours under ice-cooling, read-out: Inhibition rate (%). Here is the method: MT-4 cells (5×10^6/0.2 ml/well) were cultured on a 24-well microtiter plate. After the cells were incubated for 24 hours at 37° C. in a carbon dioxide gas incubator, a culture medium was replaced with a buffer solution (0.1% BSA-containing RPMI-1640). Together with a ligand ^125I-SDF-1α (specific activity: 2,200 Ci/mmol; available from Daiichi Pure Chemicals Co., Ltd. (Tokyo)), test materials with various concentrations were subjected to a binding reaction for 2 hours under ice-cooling. […] Then, a rate of inhibition of the binding between radioactive ligands and receptors CXCR4 by a test material was calculated (a binding-inhibition % at 0.01 μM).

A further data set concerns SD mice. The data set is described as follows: Acute toxicity, single transvenous administration (Test Example 3). In kind it is in vivo. The note with it: 6-week-old male SD mice, 2.5 mg/kg transvenously once in physiological saline. Here is the method:
The aforementioned compound was examined for acute toxicity. Specifically, 6-week-old SD mice (male) were divided into several groups (2 to 3 mice in each group). Subsequently, each of the compounds of Examples was dissolved in a physiological saline solution, and the solution was transvenously administered to the mice (dose: 2.5 mg/kg) once. Then, the number of dead mice was counted.

Data set [2] in a line: Conversion of Compound No. 91 to Compound No. 84 in human serum, LCMS (Test Example 5). In kind it is in vitro ADME. The note with it: for Proportion found by LCMS, Human, 0 minutes / Proportion found by LCMS, Human, 30 minutes: Compound No. 91 incubated in human serum/saline. The method, then:
(§1) 147 μl of human serum pool (manufactured by Cosmo Bio Co. Ltd.) or pool serum obtained by centrifugation (3,500 rpm for 10 minutes) of whole blood collected from a Crj:CD (SD) IGS male rat (manufactured by Charles River Laboratories Japan, INC.) was dispensed in a tube. 147 μl of a physiological saline solution (manufactured by Hikari Pharmaceutical Co., Ltd.) was dispensed thereto. Subsequently, the whole was preincubated for 3 minutes. The solution was added and mixed with a solution (3 μl) obtained by: diluting a 25 mmol/l DMSO solution containing the Compound No. 91 with a physiological saline solution to adjust to 500 μmol/l. The reaction was allowed to start in a thermomixer. After 30 minutes later, the solution was added with 0.1% formic acid/methanol solution (600 μl) and the whole was mixed. The solution was subjected to centrifugation (15,000 rpm for 5 minutes) and the supernatant was subjected to LCMS (liquid chromatograph mass spectrometry) measurement.

Data set [3] is described as follows: Conversion of Compound No. 91 to Compound No. 84 in rat serum, LCMS (Test Example 5). The note with it: for Proportion found by LCMS, Rat, 0 minutes / Proportion found by LCMS, Rat, 30 minutes: Compound No. 91 incubated in rat serum/saline. In kind it is in vitro ADME. Here is the method:
as §1

T1 sequence (P61073 whole entry): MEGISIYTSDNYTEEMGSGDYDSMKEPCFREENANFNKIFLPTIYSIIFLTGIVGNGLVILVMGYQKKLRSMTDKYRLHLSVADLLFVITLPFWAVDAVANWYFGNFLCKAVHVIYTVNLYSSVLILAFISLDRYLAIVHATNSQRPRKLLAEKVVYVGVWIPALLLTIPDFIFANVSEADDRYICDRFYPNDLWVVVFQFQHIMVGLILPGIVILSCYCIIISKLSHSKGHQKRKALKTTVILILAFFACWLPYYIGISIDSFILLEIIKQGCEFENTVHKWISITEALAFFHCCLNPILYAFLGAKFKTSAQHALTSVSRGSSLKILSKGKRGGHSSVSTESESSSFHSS

`CCCN(CCC)CCCCN(Cc1ccc(CN(Cc2ncc[nH]2)Cc2nccn2C)cc1)C(=O)C(F)(F)F` [Compound No. 37, N-(4-dipropylamino-butyl)-2,2,2-trifluoro-N-(4-{[(1H-imidazol-2-ylmethyl)-(1-methyl-1H-imidazol-2-ylmethyl)-amino]-methyl}-benzyl)-acetamide]: in data set [1], the EC50 (in general, the concentration that produces a half-maximal response) amounted to 3 nM. For the same compound, at CXCR4, the inhibition – broadly, the percentage by which the read-out fell short of the control – at 0.01 µM was found to be 92.3%. For the same compound, in the data set with SD mice, the Dead mice/test mice is 0/3.

In data set [1], `CN(CCCCN1CCCCC1)Cc1ccc(CN(Cc2ncc[nH]2)Cc2nccn2C)cc1` [Compound No. 44, (4-{[(1H-imidazol-2-ylmethyl)-(1-methyl-1H-imidazol-2-ylmethyl)-amino]-methyl}-benzyl)-methyl-(4-piperidin-1-ylbutyl)amine] showed an EC50 of 2 nM. For the same compound, the inhibition at 0.01 µM at CXCR4 is 81.6%. Also, in the data set on SD mice, the Dead mice/test mice was 0/3.

In data set [1], `CCCN(CCC)CCCc1nc2ccc(CN(Cc3ncc[nH]3)Cc3nccn3C)cc2n1CCC` [Compound No. 46, [3-(6-{[(1H-imidazol-2-ylmethyl)-(1-methyl-1H-imidazol-2-ylmethyl)-amino]-methyl}-1-propyl-1H-benzimidazol-2-yl)-propyl]-dipropyl-amine] yielded an EC50 of 17 nM. Besides, on CXCR4, the inhibition at 0.01 µM is 74.6%. Besides, the Dead mice/test mice in the data set on SD mice was 0/3.

`CCCN(CCC)CCCCc1nc2ccc(CN(Cc3ncc[nH]3)Cc3nccn3C)cc2n1C(C)C` [Compound No. 47, [4-(6-{[(1H-imidazol-2-ylmethyl)-(1-methyl-1H-imidazol-2-ylmethyl)-amino]-methyl}-1-isopropyl-1H-benzimidazol-2-yl)-butyl]-dipropyl-amine]: a half-maximal response in data set [1] (EC50) required 2 nM. Moreover, on CXCR4, the inhibition at 0.01 µM is 86.2%. For the same compound, in the data set on SD mice, the Dead mice/test mice is 0/3.

`CCCN(CCC)CCCCN(Cc1ccc(CN(Cc2ncc[nH]2)C2CCCc3cccnc32)cc1)S(C)(=O)=O` (stereo not shown) [Compound No. 50, N-(4-dipropylamino-butyl)-N-(4-{[(1H-imidazol-2-ylmethyl)-(5,6,7,8-tetrahydro-quinolin-8-yl)-amino]-methyl}-benzyl)-methanesulfonamide] registered an EC50 in data set [1] of 401 nM. Also, the inhibition at 0.01 µM at CXCR4 came out at 53.4%. Besides, the Dead mice/test mice in the data set on SD mice is given as 0/3.

With `CCCN(CCC)CCCCN(CCC(=O)O)Cc1ccc(CN(Cc2ncc[nH]2)Cc2nccn2C)cc1` [Compound No. 51, 3-[(4-dipropylamino-butyl)-(4-{[(1H-imidazol-2-ylmethyl)-(1-methyl-1H-imidazol-2-ylmethyl)-amino]-methyl}-benzyl)-amino]-propionic acid], in data set [1], the response was half-maximal at 2 nM (EC50). On CXCR4, the inhibition at 0.01 µM came out at 85.8%. In addition, the Dead mice/test mice with SD mice was 0/3.

Turning to `CCCN(CCC)CCCCN(CC#N)Cc1ccc(CN(Cc2ncc[nH]2)Cc2nccn2C)cc1` [Compound No. 82, [(4-dipropylamino-butyl)-(4-[[(1H-imidazol-2-ylmethyl)-(1-methyl-1H-imidazol-2-ylmethyl)-amino]-methyl]-benzyl)-amino]-acetonitrile], the EC50 in data set [1] worked out at 3 nM. Also, the inhibition at 0.01 µM on CXCR4 was 82.3%. For the same compound, the Dead mice/test mice in the data set on SD mice is given as 0/3.

Regarding `CCCN(CCC)CCCCN(CC(=O)OC)Cc1ccc(CN(Cc2ncc[nH]2)Cc2nccn2C)cc1` [Compound No. 83, [(4-dipropylamino-butyl)-(4-[[(1H-imidazol-2-ylmethyl)-(1-methyl-1H-imidazol-2-ylmethyl)-amino]-methyl]-benzyl)-amino]-acetic acid methyl ester], the EC50 in data set [1] came to 3 nM. The inhibition at 0.01 µM at CXCR4 turned out to be 79.7%. Besides, the Dead mice/test mice in the data set with SD mice is listed as 0/3.

In data set [1], `CCCN(CCC)CCCCN(CC(=O)O)Cc1ccc(CN(Cc2ncc[nH]2)Cc2nccn2C)cc1` [Compound No. 84, [(4-dipropylamino-butyl)-(4-[[(1H-imidazol-2-ylmethyl)-(1-methyl-1H-imidazol-2-ylmethyl)-amino]-methyl]-benzyl)-amino]-acetic acid] came in with an EC50 of 3 nM. At CXCR4, the inhibition at 0.01 µM was found to be 88.3%. Also, the Dead mice/test mice in the data set with SD mice is given as 0/3. In addition, the “Proportion found by LCMS, Human, 0 minutes” value in data set [2] was 1%. The “Proportion found by LCMS, Human, 30 minutes” value in data set [2] (30 minutes) was 80%. For the same compound, the “Proportion found by LCMS, Rat, 0 minutes” value in data set [3] was 24%. In data set [3] (30 minutes), the “Proportion found by LCMS, Rat, 30 minutes” value is listed as 100%.

For `CCCN(CCC)CCCCN(CC(=O)OC)Cc1ccc(CN(Cc2ncc[nH]2)Cc2ncc[nH]2)cc1` [Compound No. 87, [(4-[[bis-(1H-imidazol-2-ylmethyl)-amino]-methyl]-benzyl)-(4-dipropylamino-butyl)-amino]-acetic acid methyl ester], the EC50 in data set [1] worked out at 3 nM. The inhibition at 0.01 µM at CXCR4 came to 82.1%. Further, in the data set with SD mice, the Dead mice/test mice was 0/3.

`CCCN(CCC)CCCCN(CC(=O)O)Cc1ccc(CN(Cc2ncc[nH]2)Cc2ncc[nH]2)cc1` [Compound No. 88, [(4-[[bis-(1H-imidazol-2-ylmethyl)-amino]-methyl]-benzyl)-(4-dipropylamino-butyl)-amino]-acetic acid] registered an EC50 in data set [1] of 2 nM. Further, the inhibition at 0.01 µM at CXCR4 amounted to 85%. Also, the Dead mice/test mice in the data set with SD mice is 0/3.

In data set [1], `CCCN(CCC)CCCCN(CC(=O)OCC)Cc1ccc(CN(Cc2ncc[nH]2)Cc2nccn2C)cc1` [Compound No. 91] came in with an EC50 of 3 nM. In addition, at CXCR4, the inhibition at 0.01 µM turned out to be 87.7%. Also, the Dead mice/test mice in the data set on SD mice is 0/3. Further, the “Proportion found by LCMS, Human, 0 minutes” value in data set [2] is 99%. For the same compound, the “Proportion found by LCMS, Human, 30 minutes” value in data set [2] (30 minutes) worked out at 20%. The “conversion of prodrug in serum” value is reported as “converted to the Compound No. 84” in data set [2] (human serum, 30 minutes) and “converted to the Compound No. 84” in data set [3] (rat serum, 30 minutes). The “Proportion found by LCMS, Rat, 0 minutes” value in data set [3] was found to be 76%. Besides, in data set [3] (30 minutes), the “Proportion found by LCMS, Rat, 30 minutes” value is 0%.

With `CCCN(CCC)CCCCN(CC(=O)OCC)Cc1ccc(CN(Cc2ncc[nH]2)Cc2ncc[nH]2)cc1` [Compound No. 97, [(4-[[bis-(1H-imidazol-2-ylmethyl)-amino]-methyl]-benzyl)-(4-dipropylamino-butyl)-amino]-acetic acid ethyl ester], the response in data set [1] was half-maximal at 1 nM (EC50). On CXCR4, the inhibition at 0.01 µM was 85.6%. Besides, the Dead mice/test mice in the data set with SD mice was 0/3.

Regarding `CCCN(CCC)CCCCN(CC(=O)O)Cc1ccc(CN(Cc2nccn2C)Cc2nccn2C)cc1` [Compound No. 100, [(4-[[bis-(1-methyl-1H-imidazol-2-ylmethyl)-amino]-methyl]-benzyl)-(4-dipropylamino-butyl)-amino]-acetic acid], it took 2 nM to reach a half-maximal effect in data set [1] (EC50). Also, at CXCR4, the inhibition at 0.01 µM came to 79.2%. The Dead mice/test mice with SD mice is recorded as 0/3.
